Legend:
Assay type in all cases: in vivo
rice (Oryza sativa) = experiment: Test B flooded paddy test; conditions: for Plant response rating, Flood, Rice: 250 g ai/ha, flooded paddy test, visual rating on 0 to 100 scale (0 no effect, 100 complete control) after 13 to 15 days; for Plant response rating, Rice: Flood (flooded paddy test), 13 to 15 days
Procedure, shortened: (§1)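 Greenhouse-held for 13 to 15 days, treated pots were compared visually with controls and scored 0–100 (0, no effect). Treatment had been made into paddy water kept at 3 cm above the soil, with plants at the 2-leaf stage.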

[1] = system: barnyardgrass (Echinochloa crus-galli); experiment: Test B flooded paddy test; conditions: for Plant response rating, Flood, Barnyardgrass: 250 g ai/ha, flooded paddy test, visual rating on 0 to 100 scale (0 no effect, 100 complete control) after 13 to 15 days; for Plant response rating, Barnyardgrass: Flood (flooded paddy test), 13 to 15 days
Procedure, shortened: as §1

[2] = system: ducksalad (Heteranthera limosa); experiment: Test B flooded paddy test; conditions: for Plant response rating, Flood, Ducksalad: 250 g ai/ha, flooded paddy test, visual rating on 0 to 100 scale (0 no effect, 100 complete control) after 13 to 15 days; for Plant response rating, Ducksalad: Flood (flooded paddy test), 13 to 15 days
Procedure, shortened: as §1

[3] = system: umbrella sedge (Cyperus difformis); experiment: Test B flooded paddy test; conditions: for Plant response rating, Flood, Sedge, Umbrella: 250 g ai/ha, flooded paddy test, visual rating on 0 to 100 scale (0 no effect, 100 complete control) after 13 to 15 days; for Plant response rating, Sedge, Umbrella: Flood (flooded paddy test), 13 to 15 days
Procedure, shortened: as §1

[4] = system: bermudagrass (Cynodon dactylon); experiment: Test B pre-/postemergence plant response
Procedure, shortened: (§2)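 Plants treated either at seeding (loam/sand soil) or postemergence at 2 to 18 cm height, using a surfactant-containing non-phytotoxic solvent formulation. Evaluation was visual after 13 to 15 days, 0 to 100 scale relative to controls.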

[5] = system: wheat (Triticum aestivum); experiment: Test B pre-/postemergence plant response
Procedure, shortened: as §2

[6] = system: lambsquarters (Chenopodium album); experiment: Test B pre-/postemergence plant response
Procedure, shortened: as §2

[7] = system: pigweed (Amaranthus retroflexus); experiment: Test B pre-/postemergence plant response
Procedure, shortened: as §2

[8] = system: woolly cupgrass (Eriochloa villosa); experiment: Test B pre-/postemergence plant response
Procedure, shortened: as §2

[9] = system: downy bromegrass (Bromus tectorum); experiment: Test B pre-/postemergence plant response
Procedure, shortened: as §2

[10] = system: Surinam grass (Brachiaria decumbens); experiment: Test B pre-/postemergence plant response
Procedure, shortened: as §2

[11] = system: yellow nutsedge (Cyperus esculentus); experiment: Test B pre-/postemergence plant response
Procedure, shortened: as §2

[12] = 31 g ai/ha, scale of 0 to 100 where 0 is no effect and 100 is complete control
[13] = 62 g ai/ha, scale of 0 to 100 where 0 is no effect and 100 is complete control
[14] = 125 g ai/ha, scale 0 to 100, 0 is no effect, 100 is complete control
[15] = 31 g ai/ha, postemergence, scale 0 to 100, 0 is no effect, 100 is complete control
[16] = 250 g ai/ha, Preemergence, 0 to 100 scale
[17] = Postemergence, 62 g ai/ha, scale 0 (no effect) to 100 (complete control), 13 to 15 days
[18] = Postemergence, 125 g ai/ha, visual rating after 13 to 15 days, scale 0 (no effect) to 100 (complete control)
[19] = Postemergence, 250 g ai/ha, scale 0 to 100 (0 no effect, 100 complete control)
[20] = Preemergence, 31 g ai/ha, scale 0 to 100 (0 no effect, 100 complete control)
[21] = Preemergence, 62 g ai/ha, scale 0 to 100 (0 no effect, 100 complete control)
[22] = Preemergence, 125 g ai/ha, scale 0 to 100, 0 no effect, 100 complete control
[23] = Flood, 31 g ai/ha, scale 0 to 100 (0 no effect, 100 complete control)
[24] = 62 g ai/ha, postemergence, 0 is no effect, 100 is complete control, 13 to 15 days

O=C1CCCC(O)=C1C(=O)c1cnc(-c2cccc(Cl)c2)n(-c2ccc(Cl)cc2)c1=O [Compound 64]
Plant response rating, Flood, Rice (rice (Oryza sativa)): 0
Plant response rating, Rice (rice (Oryza sativa); [12]): 0
Plant response rating, Rice (rice (Oryza sativa); [13]): 0
Plant response rating, Rice (rice (Oryza sativa); [14]): 0
Plant response rating, Flood, Barnyardgrass [1]: 0
Plant response rating, Barnyardgrass [1, 12]: 0
Plant response rating, Barnyardgrass [1, 13]: 0
Plant response rating, Barnyardgrass [1, 14]: 0
Plant response rating, Flood, Ducksalad [2]: 60
Plant response rating, Ducksalad [2, 12]: 30
Plant response rating, Ducksalad [2, 13]: 30
Plant response rating, Ducksalad [2, 14]: 50
Plant response rating, Flood, Sedge, Umbrella [3]: 40
Plant response rating, Sedge, Umbrella [3, 12]: 0
Plant response rating, Sedge, Umbrella [3, 13]: 0
Plant response rating, Sedge, Umbrella [3, 14]: 0
Plant response rating, Bermudagrass [4, 15]: 95
Plant response rating, Bermudagrass [4, 16]: 98
Plant response rating, Bermudagrass [4, 17]: 95
Plant response rating, Bermudagrass [4, 18]: 98
Plant response rating, Bermudagrass [4, 19]: 98
Plant response rating, Bermudagrass [4, 20]: 50
Plant response rating, Bermudagrass [4, 21]: 85
Plant response rating, Bermudagrass [4, 22]: 98
Plant response rating, Wheat [5, 15]: 10
Plant response rating, Wheat [5, 17]: 15
Plant response rating, Wheat [5, 18]: 30
Plant response rating, Wheat [5, 19]: 55
Plant response rating, Wheat [5, 20]: 0
Plant response rating, Wheat [5, 21]: 0
Plant response rating, Wheat [5, 22]: 0
Plant response rating, Lambsquarters [6, 15]: 95
Plant response rating, Lambsquarters [6, 16]: 98
Plant response rating, Lambsquarters [6, 17]: 100
Plant response rating, Lambsquarters [6, 18]: 100
Plant response rating, Lambsquarters [6, 19]: 100
Plant response rating, Lambsquarters [6, 20]: 95
Plant response rating, Lambsquarters [6, 21]: 98
Plant response rating, Lambsquarters [6, 22]: 98
Plant response rating, Pigweed [7, 15]: 98
Plant response rating, Pigweed [7, 17]: 100
Plant response rating, Pigweed [7, 18]: 100
Plant response rating, Pigweed [7, 19]: 100
Plant response rating, Pigweed [7, 20]: 55
Plant response rating, Pigweed [7, 21]: 75
Plant response rating, Pigweed [7, 22]: 85
Plant response rating, Cupgrass, Woolly [8, 15]: 75
Plant response rating, Cupgrass, Woolly [8, 16]: 10
Plant response rating, Cupgrass, Woolly [8, 17]: 95
Plant response rating, Cupgrass, Woolly [8, 18]: 98
Plant response rating, Cupgrass, Woolly [8, 19]: 98
Plant response rating, Cupgrass, Woolly [8, 20]: 0
Plant response rating, Cupgrass, Woolly [8, 21]: 0
Plant response rating, Cupgrass, Woolly [8, 22]: 0
Plant response rating, Bromegrass, Downy [9, 15]: 25
Plant response rating, Bromegrass, Downy [9, 16]: 0
Plant response rating, Bromegrass, Downy [9, 17]: 45
Plant response rating, Bromegrass, Downy [9, 18]: 60
Plant response rating, Bromegrass, Downy [9, 19]: 85
Plant response rating, Bromegrass, Downy [9, 20]: 0
Plant response rating, Bromegrass, Downy [9, 21]: 0
Plant response rating, Bromegrass, Downy [9, 22]: 0
Plant response rating, Surinam Grass [10, 15]: 85
Plant response rating, Surinam Grass [10, 17]: 95
Plant response rating, Surinam Grass [10, 18]: 98
Plant response rating, Surinam Grass [10, 19]: 98
Plant response rating, Surinam Grass [10, 20]: 0
Plant response rating, Surinam Grass [10, 21]: 85
Plant response rating, Surinam Grass [10, 22]: 85
Plant response rating, Nutsedge, Yellow [11, 15]: 0
Plant response rating, Nutsedge, Yellow [11, 17]: 10
Plant response rating, Nutsedge, Yellow [11, 18]: 10
Plant response rating, Nutsedge, Yellow [11, 19]: 25
Plant response rating, Nutsedge, Yellow [11, 20]: 0
Plant response rating, Nutsedge, Yellow [11, 21]: 0
Plant response rating, Nutsedge, Yellow [11, 22]: 0

CCCCc1ncc(C(=O)C2=C(O)CCCC2=O)c(=O)n1-c1ccc(C)cc1 [Compound 67]
Plant response rating, Flood, Rice (rice (Oryza sativa)): 0
Plant response rating, Rice (rice (Oryza sativa); [13]): 0
Plant response rating, Rice (rice (Oryza sativa); [14]): 0
Rice plant response rating (rice (Oryza sativa); [23]): 0
Plant response rating, Flood, Barnyardgrass [1]: 0
Plant response rating, Barnyardgrass [1, 13]: 0
Plant response rating, Barnyardgrass [1, 14]: 0
Barnyardgrass plant response rating [1, 23]: 0
Plant response rating, Flood, Ducksalad [2]: 0
Plant response rating, Ducksalad [2, 13]: 0
Plant response rating, Ducksalad [2, 14]: 0
Ducksalad plant response rating [2, 23]: 0
Plant response rating, Flood, Sedge, Umbrella [3]: 0
Plant response rating, Sedge, Umbrella [3, 13]: 0
Plant response rating, Sedge, Umbrella [3, 14]: 0
Sedge, Umbrella plant response rating [3, 23]: 0
Plant response rating, Bermudagrass [4, 15]: 35
Bermudagrass plant response rating (0 to 100 scale) [4, 24]: 70
Plant response rating, Bermudagrass [4, 16]: 100
Plant response rating, Bermudagrass [4, 18]: 70
Plant response rating, Bermudagrass [4, 19]: 85
Plant response rating, Bermudagrass [4, 20]: 45
Plant response rating, Bermudagrass [4, 21]: 90
Plant response rating, Bermudagrass [4, 22]: 95
Plant response rating, Wheat [5, 15]: 5
Wheat plant response rating (0 to 100 scale) [5, 24]: 5
Plant response rating, Wheat [5, 18]: 25
Plant response rating, Wheat [5, 19]: 25
Plant response rating, Wheat [5, 20]: 0
Plant response rating, Wheat [5, 21]: 0
Plant response rating, Wheat [5, 22]: 0
Plant response rating, Lambsquarters [6, 15]: 80
Lambsquarters plant response rating (0 to 100 scale) [6, 24]: 95
Plant response rating, Lambsquarters [6, 16]: 98
Plant response rating, Lambsquarters [6, 18]: 98
Plant response rating, Lambsquarters [6, 19]: 100
Plant response rating, Lambsquarters [6, 20]: 98
Plant response rating, Lambsquarters [6, 21]: 98
Plant response rating, Lambsquarters [6, 22]: 98
Plant response rating, Pigweed [7, 15]: 98
Pigweed plant response rating (0 to 100 scale) [7, 24]: 98
Plant response rating, Pigweed [7, 18]: 98
Plant response rating, Pigweed [7, 19]: 100
Plant response rating, Pigweed [7, 20]: 98
Plant response rating, Pigweed [7, 21]: 98
Plant response rating, Pigweed [7, 22]: 98
Plant response rating, Cupgrass, Woolly [8, 15]: 60
Cupgrass, Woolly plant response rating (0 to 100 scale) [8, 24]: 70
Plant response rating, Cupgrass, Woolly [8, 16]: 10
Plant response rating, Cupgrass, Woolly [8, 18]: 70
Plant response rating, Cupgrass, Woolly [8, 19]: 75
Plant response rating, Cupgrass, Woolly [8, 20]: 0
Plant response rating, Cupgrass, Woolly [8, 21]: 0
Plant response rating, Cupgrass, Woolly [8, 22]: 0
Plant response rating, Bromegrass, Downy [9, 15]: 0
Bromegrass, Downy plant response rating (0 to 100 scale) [9, 24]: 0
Plant response rating, Bromegrass, Downy [9, 16]: 0
Plant response rating, Bromegrass, Downy [9, 18]: 0
Plant response rating, Bromegrass, Downy [9, 19]: 5
Plant response rating, Bromegrass, Downy [9, 20]: 0
Plant response rating, Bromegrass, Downy [9, 21]: 0
Plant response rating, Bromegrass, Downy [9, 22]: 0
Plant response rating, Surinam Grass [10, 15]: 10
Surinam Grass plant response rating (0 to 100 scale) [10, 24]: 20
Plant response rating, Surinam Grass [10, 18]: 20
Plant response rating, Surinam Grass [10, 19]: 25
Plant response rating, Surinam Grass [10, 20]: 0
Plant response rating, Surinam Grass [10, 21]: 10
Plant response rating, Surinam Grass [10, 22]: 15
Plant response rating, Nutsedge, Yellow [11, 15]: 60
Nutsedge, Yellow plant response rating (0 to 100 scale) [11, 24]: 65
Plant response rating, Nutsedge, Yellow [11, 18]: 65
Plant response rating, Nutsedge, Yellow [11, 19]: 70
Plant response rating, Nutsedge, Yellow [11, 20]: 0
Plant response rating, Nutsedge, Yellow [11, 21]: 65
Plant response rating, Nutsedge, Yellow [11, 22]: 65
